The record followed here is patent US20100087458A1, “METHOD OF TREATING MELANOMA” (Myriad Pharmaceuticals, Inc., priority 2007, published 2010).

Each structure is given as a SMILES string. “Also recorded” adds a separate entry of the source. Structures can show the parent of a compound that is named as a salt.

This data set relates to Subjects with refractory solid tumors. Kind of data set: Phase I clinical trial, open-label, dose-escalating, multiple-dose, weekly intravenous administration (safety, tolerability). It is filed as in vivo. The following applies: human subjects. The method, then: An open-label, dose-escalating, multiple-dose study to define the safety, tolerability and phamacokinetics of weekly intravenous administration of (4-Methoxy-phenyl)-methyl-(2-methyl-quinazolin-4-yl)-amine hydrochloride was performed. A dosing schedule (each 4 week cycle) was performed for (4-Methoxy-phenyl)-methyl-(2-methyl-quinazolin-4-yl)-amine hydrochloride weekly for 3 weeks with no infusion on the fourth week of each cycle. Subjects with refractory solid tumors were enrolled in cohorts of 3. During Cycle 1, subjects were hospitalized during each infusion of (4-Methoxy-phenyl)-methyl-(2-methyl-quinazolin-4-yl)-amine hydrochloride and remained for observation and safety evaluation for approximately 24 hours following the end of the infusion. All subject had continuous telemetry for 2 hours prior to infusion, for 1-2 hour infusion and for 3 hours after the end of the infusion. Any clinically significant electrocardiographic (ECG) wave form abnormality was recorded and prolongation of the monitoring period extended at the discretion of the principal investigator.
Electrocardiograms were obtained prior to starting the infusion and within 30 minutes of the end of infusion for each infusion of the first cycle. Electrocardiograms on Day 1 were obtained in triplicate 5 minutes apart.
Neurocognitive assessments were made by administration of the Mini-Mental State Examination (MMSE), the Hopkins Verbal Learning and timed Grooved Pegboard tests before administration of the intravenous infusion and approximately 24 hours of the infusion at each weekly administration of the first cycle.
On days 1, 8, and 15 of each cycle, vital signs were obtained prior to the first dose, at 15, 30, and 60 minutes after the initiation of the infusion, and at 0.5, 1, 1.5, 2, and 4 hours after the end of the intravenous infusion. Vital signs at all time points beyond the start of the intravenous infusion included heart rate, blood pressure and respirations. Temperature was measured at the end of the infusion and 4 hours later.
Individual subjects were allowed to continue on repeated weekly ×3 administrations every 28 days with no dose increase provided there was no unacceptable toxicity or disease progression.
Tumor response was evaluated by response evaluation criteria in solid tumors (RECIST) criteria. To prevent sever hypersensitivity reactions due to Cremophor® EL, subjects were premedicated with oral dexamethasone (20 mg) administered approximately 12 and 6 hours before the intravenous infusion with (4-Methoxy-phenyl)-methyl-(2-methyl-quinazolin-4-yl)-amine hydrochloride, diphenhydramine (50 mg) or its equivalent administered intravenously 30-60 minutes before (4-Methoxy-phenyl)-methyl-(2-methyl-quinazolin-4-yl)-amine hydrochloride, and cimetidine (300 mg) or ranitidine (50 mg) administered intravenously 30-60 minutes before (4-Methoxy-phenyl)-methyl-(2-methyl-quinazolin-4-yl)-amine hydrochloride.

The mark [1] stands for this setting: weekly i.v. infusion for 3 of 4 weeks, 0.3-3.3 mg/m^2.
Where [2] appears, read: weekly i.v. infusion, 0.3-3.3 mg/m^2.

In the case of `COc1ccc(N(C)c2nc(C)nc3ccccc23)cc1` [(4-Methoxy-phenyl)-methyl-(2-methyl-quinazolin-4-yl)-amine hydrochloride], the “effects on cardiac conduction (PR, QRS or QTc)” value (ECG before and within 30 minutes of end of infusion, 0.3-3.3 mg/m^2) is given as “no significant effects on cardiac conduction”. Besides, the “overall safety and tolerability” value (weekly i.v. administration, various dosages, hydrochloride) was “safe and well tolerated in human subjects at various dosages; also recorded: safe and tolerable”. Under setting [1], the dose limiting toxicity result is “vascular in nature, manifested by an acute coronary syndrome”; the intratumor bleeding result is on record as “incidences of intratumor bleeding”; the peripheral cytotoxicity entry is listed as “no evidence of cytotoxity peripherally at the administered doses”. Besides, under setting [2], the bradycardia entry is on record as “occasional episodes of bradycardia” and the systolic blood pressure result is reported as “dose-related increase in systolic blood pressure”.
